Laboratory results: US20100137388A1, “Therapeutic Pro-Antibiotic Agents and Methods of Use Thereof” (priority 2007, published 2010)
Converted amounts (≈) assume the structure as drawn.

Key:
[1] = tested on: E. coli D22 mutant strain; assay: Antibiotic MIC, NCCLS M7-A6 broth microdilution; type: cell-based; conditions: range tested 1 μM-2 mM
Description: (§1) Susceptibilities to the compounds were determined using the National Committee for Clinical Laboratory Standards (NCCLS) M7-A6 broth microdilution method. Cation-adjusted Mueller-Hinton broth (Ca^2+, 25 μg/mL; Mg^2+, 12.5 μg/mL) microdilution panels were prepared to contain antimicrobial doubling dilution concentrations of an appropriate range. DMSO (dimethylsulfoxide) controls were incorporated into the panel to mimic the quantity of DMSO used in dissolving some of the compounds at the higher concentrations. Each final panel well volume was 100 μL with a bacterial inoculum of 5×10^5 CFU (colony forming units)/mL. Panels were read following 16 to 20 h of incubation at 35 degrees Celsius in ambient air. The MIC (minimum inhibitory concentration) was defined as the lowest concentration of antimicrobial inhibiting visible growth.
(§2) Procedure followed was as described above, with the appropriate range being 1 μM-2 mM and using the E. coli D22 mutant strain and the E. coli K12 wild type strain. Value recorded was the lowest concentration of compound needed to produce the bactericidal or bacteriostatic effect (lower is better): […]

E. coli LpxA = E. coli LpxA (Escherichia coli, UniProt P0A722); assay: LpxA enzyme inhibition (TLC of radiolabeled UDP-GlcNAc acylation); type: biochemical; conditions: percentage of control, lower is better; for % LpxA activity (500 μM) / remaining activity at 500 µM (stock): test compound dilution 500 μM; for % LpxA activity (5 mM) / remaining activity at 5000 µM (stock): test compound dilution 5 mM
Description: Measurement of LpxA activity was based on increased mobility of radiolabeled UDP-N-acetyl-D-glucosamine on thin layer chromatography (TLC) plates upon acylation. One μl of test compound of appropriate dilution in ethanol was mixed with 2.5 μM β-hydroxy-myristoyl-ACP and 0.5 μM E. coli LpxA in 1% bovine serum albumin and 40 mM Na-Hepes (pH 8.0) at room temperature (total volume 8 μl). The reaction was initiated by adding 2 μl of UDP-[^3H]N-acetyl-D-glucosamine and aliquots were removed at various time intervals and spotted directly on silica gel G plates.
The procedure as given above was followed, with the appropriate dilutions of test compound being 5 mM and 500 μM.

[2] = tested on: E. coli K12 wild type strain; assay: Antibiotic MIC, NCCLS M7-A6 broth microdilution; type: cell-based; conditions: range tested 1 μM-2 mM
Description: as §1, §2

mice = conditions: mouse, in vivo
[3] = tested on: E. coli K12 wild type strain; assay: Pro-antibiotic MIC of antibiotic agents alone and with DNM0195; type: cell-based; conditions: antibiotic agent alone
Description: as §1, with “DMSO (dimethylsulfoxide) controls were incorporated into the panel to mimic the quantity of DMSO used in dissolving some of the compounds at the higher concentrations.” left out
Following Example 24, MICs of various antibiotic agents were determined against the E. coli K12 wild type strain, using the same procedure with the appropriate range for each antibiotic. For erythromycin, gentamicin, and kanamycin, this range was 0.24 μg/mL-500 μg/mL. Parallel to this effort, solutions were prepared which were identical. To each of these were added 0.5 μL of DNM0195 stock solution and mixed to produce a final concentration of 500 μM for determination of pro-antibiotic activity.

[4] = Escherichia coli, read-out: MIC

Sequence of E. coli LpxA (P0A722 whole entry): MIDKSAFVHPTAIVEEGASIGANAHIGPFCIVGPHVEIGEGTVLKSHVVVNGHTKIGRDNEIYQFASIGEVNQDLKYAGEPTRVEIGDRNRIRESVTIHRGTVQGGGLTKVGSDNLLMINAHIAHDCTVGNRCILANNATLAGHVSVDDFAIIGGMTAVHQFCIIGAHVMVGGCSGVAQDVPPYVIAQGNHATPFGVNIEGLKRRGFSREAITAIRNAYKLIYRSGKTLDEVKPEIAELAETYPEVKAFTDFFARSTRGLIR

`COC(=O)/C=C/c1cc(-c2nnn[nH]2)c(Cc2ccccc2)s1` [DNM0194, (Z) and (E)-methyl 3-(5-benzyl-4-(1H-tetrazol-5-yl)thiophen-2-yl)acrylate] was tested, and the MIC [1] was 1000 to 2000 µM, the “% LpxA activity (500 μM)” value (E. coli LpxA) was 36.0% and the “% LpxA activity (5 mM)” value (E. coli LpxA) was 1.4%.
`O=C(O)/C=C/c1cc(-c2nnn[nH]2)c(Cc2ccccc2)s1` [DNM0195, (Z) and (E)-3-(5-benzyl-4-(1H-tetrazol-5-yl)thiophen-2-yl)acrylic acid] was tested, and the MIC [2] was 1000 to 2000 µM, the MIC [1] was 1000 µM (≈ 312 µg/mL) and the Liver biopsies (mice) was “normal”. The “% LpxA activity (500 μM)” value (E. coli LpxA) was 7.6% and the “% LpxA activity (5 mM)” value (E. coli LpxA) was 3.1%.
`Cn1nnnc1-c1cc(/C=C/C(=O)O)sc1Cc1ccccc1` [DNM0196, (E)-3-(5-benzyl-4-(1-methyl-1H-tetrazol-5-yl)thiophen-2-yl)acrylic acid] gave a remaining activity at 500 µM (stock) (E. coli LpxA) of 43.9% and a remaining activity at 5000 µM (stock) (E. coli LpxA) of 5.8%.
`Cn1nnc(-c2cc(/C=C/C(=O)O)sc2Cc2ccccc2)n1` [DNM0197, (E)-3-(5-benzyl-4-(2-methyl-2H-tetrazol-5-yl)thiophen-2-yl)acrylic acid] was tested, and the remaining activity at 500 µM (stock) (E. coli LpxA) was 62.4% and the remaining activity at 5000 µM (stock) (E. coli LpxA) was 20.2%.
`O=C(O)/C=C/c1cc(-c2nnn[nH]2)c(-c2ccc(F)cc2)s1` [DNM0224, (E)-3-(5-(4-fluorophenyl)-4-(1H-tetrazol-5-yl)thiophen-2-yl)acrylic acid] was tested, and the remaining activity at 500 µM (stock) (E. coli LpxA) was 88.7% and the remaining activity at 5000 µM (stock) (E. coli LpxA) was 37.9%.
`O=C(O)/C=C/c1cc(-c2nnn[nH]2)c(-c2ccc(-c3ccccc3)cc2)s1` [DNM0225, (E)-3-(5-(4-biphenylyl)-4-(1H-tetrazol-5-yl)thiophen-2-yl)acrylic acid] showed a remaining activity at 500 µM (stock) (E. coli LpxA) of 84.9% and a remaining activity at 5000 µM (stock) (E. coli LpxA) of 7.3%.
Compound `COC(=O)/C=C/c1cc(-c2nnn(C)n2)c(Cc2ccccc2)s1` [DNM0226, (E)-methyl 3-(5-benzyl-4-(2-methyl-2H-tetrazol-5-yl)thiophen-2-yl)acrylate] has a remaining activity at 500 µM (stock) (E. coli LpxA) of 97% and a remaining activity at 5000 µM (stock) (E. coli LpxA) of 93%.
`COC(=O)/C=C/c1cc(-c2nnnn2C)c(Cc2ccccc2)s1` [DNM0227, (E)-methyl 3-(5-benzyl-4-(1-methyl-1H-tetrazol-5-yl)thiophen-2-yl)acrylate] gave a remaining activity at 500 µM (stock) (E. coli LpxA) of 92.1% and a remaining activity at 5000 µM (stock) (E. coli LpxA) of 86.6%.
Work on `COC(=O)/C=C/c1sc(-c2ccc(F)cc2)cc1-c1nnn[nH]1` [DNM0229, (E)-methyl 3-(5-(4-fluorophenyl)-3-(1H-tetrazol-5-yl)thiophen-2-yl)acrylate] yielded a remaining activity at 500 µM (stock) (E. coli LpxA) of 57.8% and a remaining activity at 5000 µM (stock) (E. coli LpxA) of 4%.
Compound `Cn1nnnc1-c1cc(-c2ccc(F)cc2)sc1/C=C/C(=O)O` [DNM0233, (E)-3-(5-(4-fluorophenyl)-3-(1-methyl-1H-tetrazol-5-yl)thiophen-2-yl)acrylic acid] has a remaining activity at 500 µM (stock) (E. coli LpxA) of 98.8% and a remaining activity at 5000 µM (stock) (E. coli LpxA) of 47.3%.
Work on `COC(=O)/C=C/c1cc(-c2nnn[nH]2)c(-c2cccc3ccccc23)s1` [DNM0234, (E)-methyl 3-(5-(naphthalen-1-yl)-4-(1H-tetrazol-5-yl)thiophen-2-yl)acrylate] yielded a remaining activity at 500 µM (stock) (E. coli LpxA) of 92.1% and a remaining activity at 5000 µM (stock) (E. coli LpxA) of 1.1%.
`O=C(O)/C=C/c1cc(-c2nnn[nH]2)c(-c2cccc3ccccc23)s1` [DNM0235, (E)-3-(5-(naphthalen-1-yl)-4-(1H-tetrazol-5-yl)thiophen-2-yl)acrylic acid] was tested, and the remaining activity at 500 µM (stock) (E. coli LpxA) was 59.6% and the remaining activity at 5000 µM (stock) (E. coli LpxA) was 7.3%.
In the case of `COC(=O)/C=C/c1sc(-c2ccc(-c3ccccc3)cc2)cc1-c1nnn[nH]1` [DNM0240, (E)-methyl 3-(5-(4-biphenyl)-3-(1H-tetrazol-5-yl)thiophen-2-yl)acrylate], the “% LpxA activity (500 μM)” value (E. coli LpxA) is reported as 90.7% and the “% LpxA activity (5 mM)” value (E. coli LpxA) is reported as 6.6%.
In the case of `COC(=O)/C=C/c1sc(Cc2ccccc2)cc1-c1nnn[nH]1` [DNM0243, (E)-methyl 3-(5-benzyl-3-(1H-tetrazol-5-yl)thiophen-2-yl)acrylate], the remaining activity at 500 µM (stock) (E. coli LpxA) is reported as 69.2% and the remaining activity at 5000 µM (stock) (E. coli LpxA) is reported as 0.9%.
Compound `O=C(O)/C=C/c1sc(-c2ccc(-c3ccccc3)cc2)cc1-c1nnn[nH]1` [DNM0245, (E)-3-(5-(biphenyl-4-yl)-3-(1H-tetrazol-5-yl)thiophen-2-yl)acrylic acid] has a remaining activity at 500 µM (stock) (E. coli LpxA) of 78.5% and a remaining activity at 5000 µM (stock) (E. coli LpxA) of 4.4%.
In the case of `O=C1NC(=O)C(=Cc2sc(Cc3ccccc3)cc2-c2nnn[nH]2)S1` [DNM0246, 5-((5-benzyl-3-(1H-tetrazol-5-yl)thiophen-2-yl)methylene)thiazolidine-2,4-dione], the remaining activity at 500 µM (stock) (E. coli LpxA) is reported as 165% and the remaining activity at 5000 µM (stock) (E. coli LpxA) is reported as 10.3%.
`O=C(O)/C=C/c1cc(-c2nnn(CCC(=O)O)n2)c(Cc2ccccc2)s1` [DNM0252, (E)-3-(5-benzyl-4-(2-(2-carboxyethyl)-2H-tetrazol-5-yl)thiophen-2-yl)acrylic acid] gave a remaining activity at 500 µM (stock) (E. coli LpxA) of 62.9% and a remaining activity at 5000 µM (stock) (E. coli LpxA) of 5.1%.
For `O=C(O)C(=Cc1cc(-c2nnn[nH]2)c(Cc2ccccc2)s1)C(=O)O` [DNM0264, 2-((5-benzyl-4-(1H-tetrazol-5-yl)thiophen-2-yl)methylene)malonic acid], the remaining activity at 500 µM (stock) (E. coli LpxA) was 56.8% and the remaining activity at 5000 µM (stock) (E. coli LpxA) was 5.4%.
For `O=C(O)/C=C/c1cccc(Cc2sc(/C=C/C(=O)O)cc2-c2nnn[nH]2)c1` [DNM0270, (E)-3-(3-((5-((E)-2-carboxyvinyl)-3-(1H-tetrazol-5-yl)thiophen-2-yl)methyl)phenyl)acrylic acid], the remaining activity at 500 µM (stock) (E. coli LpxA) was 89.7% and the remaining activity at 5000 µM (stock) (E. coli LpxA) was 3%.
With `CC[C@H]1OC(=O)[C@H](C)[C@@H](O[C@H]2C[C@@](C)(OC)[C@@H](O)[C@H](C)O2)[C@H](C)[C@@H](O[C@@H]2O[C@H](C)C[C@H](N(C)C)[C@H]2O)[C@](C)(O)C[C@@H](C)C(=O)[C@H](C)[C@@H](O)[C@]1(C)O` [Erythromycin] the MIC [3, 4] was 62.5 µg/mL.
`NC[C@H]1O[C@H](O[C@H]2[C@H](O)[C@@H](O[C@H]3O[C@H](CO)[C@@H](O)[C@H](N)[C@H]3O)[C@H](N)C[C@@H]2N)[C@H](O)[C@@H](O)[C@@H]1O` [Kanamycin] gave an MIC [3, 4] of 3.12 µg/mL.
Gentamicin gave an MIC [3] of 0.39 µg/mL.
